Measured values published in patent US20110104052A1, “METHODS OF SYNTHESIS AND USE OF CHEMOSPHERES” (THE JOHNS HOPKINS UNIVERSITY, priority 2007, published 2011).

Legend:
[1] = tested on: tumors growing within the liver; conditions: rabbit model for liver cancer; cited from earlier work
[2] = Loading of doxorubicin into liposome polymer matrices; format: physicochemical; conditions: polymer/lipid:drug ratio approximately at least 50:1, mol/mol
Protocol: The spheres that were subjected to ultrafiltration or column washes were stored for a variable amount of time in a minimal amount of 3 M sucrose, 750 mM Histidine HCl to maintain hydration at 20° C. and 5° C. Following storage the loading efficiency of doxorubicin into the spheres was assessed (table 1). For drug loading a procedure that could easily be implement in the pharmacy was employed. Specifically a water bath or dry heat block was allowed to equilibrate at 58° C. (55°-60° C.). For each 1 mL packed volume of microspheres, 50 mg of lyophilized doxorubicin (for storage lactose and parahydroxybenzoate may be added) in a solution of 8 mL was prepared. This solution was then added to the equilibrated heating source for 10 min. Next a 2 mL concentrated solution of sodium carbonate was injected into the microsphere solution. The 2 mL of microspheres and 8 mL of doxorubicin were then combined creating a solution with pH of 7 (this step should be done within 2 minutes of adding sodium carbonate to the microspheres). The mixture should be shaken vigorously and allowed to sit for at least 10 minutes in the heat block or water bath and then brought to room temperature. After this period the spheres can be stored up to 10 hours at 25° C. and for 7 days at 2° C.-8° C. […]

SMILES	effect of bolus injection on non-tumor tissue [1]	added doxorubicin that becomes vesicle entrapped as doxorubicin-citrate [2]
O=C(O)C(=O)CBr [3-bromopyruvate]	damages surrounding liver tissue	
COc1cccc2c1C(=O)c1c(O)c3c(c(O)c1C2=O)C[C@@](O)(C(=O)CO)C[C@@H]3O[C@H]1C[C@H](N)[C@H](O)[C@H](C)O1 [doxorubicin]		greater than 90%
